Assay results from patent US6737383B1, “Herbicidal oxadiazolidines” (priority 1999, dated 2004).

Assays:
smallflower flatsedge = experiment: Test B flood test smallflower flatsedge; assay type: in vivo, Cyperus difformis
Procedure, shortened: (§1)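 Flood test on plants grown to the 2-leaf stage; treated plants kept in greenhouse twelve to sixteen days, then visually rated against controls on a 0 (no effect) to 10 (complete control) scale.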

bamyardgrass = experiment: Test B flood test barnyardgrass; assay type: in vivo, Echinochloa crus-galli
Procedure, shortened: as §1

pigweed = experiment: Test B pre/postemergence pigweed; assay type: in vivo, Amaranthus retroflexus
Procedure, shortened: (§2)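 Response is a visual 0-to-10 score relative to untreated plants, where 0 means no effect and 10 means complete control, taken twelve to sixteen days after application. Treatments went onto soil at planting and onto foliage of 1- to 4-leaf plants, using a surfactant-containing non-phytotoxic solvent.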

crabgrass = experiment: Test B pre/postemergence crabgrass; assay type: in vivo, Digitaria sanguinalis
Procedure, shortened: as §2

duck salad = experiment: Test B flood test duck salad; assay type: in vivo, Heteranthera limosa
Procedure, shortened: as §1

giant foxtail = experiment: Test B pre/postemergence giant foxtail; assay type: in vivo, Setaria faberii
Procedure, shortened: as §2

wheat = experiment: Test B pre/postemergence wheat; assay type: in vivo, Triticum aestivum
Procedure, shortened: as §2

purple nutsedge = experiment: Test B pre/postemergence purple nutsedge; assay type: in vivo, Cyperus rotundus
Procedure, shortened: as §2

rice = experiment: Test B flood test rice; assay type: in vivo, Oryza sativa
Procedure, shortened: as §1

morningglory = experiment: Test B pre/postemergence morningglory; assay type: in vivo, Ipomoea hederacea
Procedure, shortened: as §2

surinam grass = experiment: Test B pre/postemergence surinam grass; assay type: in vivo, Brachiaria decumbens
Procedure, shortened: as §2

wild oat = experiment: Test B pre/postemergence wild oat; assay type: in vivo, Avena fatua
Procedure, shortened: as §2

corn = experiment: Test B pre/postemergence corn; assay type: in vivo, Zea mays
Procedure, shortened: as §2

rape = experiment: Test B pre/postemergence rape; assay type: in vivo, Brassica napus
Procedure, shortened: as §2

cocklebur = experiment: Test B pre/postemergence cocklebur; assay type: in vivo, Xanthium strumarium
Procedure, shortened: as §2

sugar beet = experiment: Test B pre/postemergence sugar beet; assay type: in vivo, Beta vulgaris
Procedure, shortened: as §2

[1] = Postemergence, Rate 62 g/ha, scale 0 to 10, 0 is no effect, 10 is complete control
[2] = Rate 125 g/ha, Postemergence section (flood test species), scale 0 to 10, 0 no effect, 10 complete control
[3] = Rate 500 g/ha, listed under Postemergence (flood test species), scale 0 to 10, 0 no effect, 10 complete control
[4] = flood test, listed under Postemergence, Rate 250 g/ha, scale 0 to 10, 0 no effect, 10 complete control
[5] = Postemergence, Rate 250 g/ha, scale 0 to 10, 0 no effect, 10 complete control
[6] = Preemergence, Rate 62 g/ha, scale 0 to 10 (0 no effect, 10 complete control)
[7] = Preemergence, Rate 125 g/ha, scale 0 to 10 (0 no effect, 10 complete control)
[8] = Preemergence, Rate 250 g/ha, scale of 0 to 10 where 0 is no effect and 10 is complete control
[9] = Preemergence, Rate 500 g/ha, scale 0 (no effect) to 10 (complete control)
[10] = Rate 125 g/ha, Postemergence, scale 0 to 10, 0 no effect, 10 complete control
[11] = Rate 500 g/ha, Postemergence, scale 0 to 10, 0 no effect, 10 complete control

Cc1cccc(C(C)C)c1-n1c(=O)on(C(=O)N(c2ccc(F)cc2)C(C)C)c1=O [Compound 65]
S. Flatsedge plant response rating (smallflower flatsedge; [1]): 0
S. Flatsedge plant response rating (smallflower flatsedge; [2]): 0
S. Flatsedge plant response rating (smallflower flatsedge; [3]): 0
S. Flatsedge plant response rating (smallflower flatsedge; [4]): 0
Barnyardgrass plant response rating (bamyardgrass; [1]): 0
Barnyardgrass plant response rating (bamyardgrass; [2]): 0
Barnyardgrass plant response rating (bamyardgrass; [3]): 2
Barnyardgrass plant response rating (bamyardgrass; [4]): 0
Redroot pigweed plant response rating (pigweed; [1]): 0
Redroot pigweed plant response rating (pigweed; [5]): 0
Redroot pigweed plant response rating (pigweed; [6]): 0
Plant response rating, Redroot pigweed (pigweed; [7]): 0
Plant response rating, Redroot pigweed (pigweed; [8]): 0
Redroot pigweed plant response rating (pigweed; [9]): 3
Redroot pigweed plant response rating (pigweed; [10]): 0
Redroot pigweed plant response rating (pigweed; [11]): 0
Crabgrass plant response rating (crabgrass; [1]): 0
Crabgrass plant response rating (crabgrass; [5]): 0
Crabgrass plant response rating (crabgrass; [6]): 0
Plant response rating, Crabgrass (crabgrass; [7]): 2
Plant response rating, Crabgrass (crabgrass; [8]): 4
Crabgrass plant response rating (crabgrass; [9]): 9
Crabgrass plant response rating (crabgrass; [10]): 0
Crabgrass plant response rating (crabgrass; [11]): 0
Ducksalad plant response rating (duck salad; [1]): 0
Ducksalad plant response rating (duck salad; [2]): 0
Ducksalad plant response rating (duck salad; [3]): 0
Ducksalad plant response rating (duck salad; [4]): 0
Giant foxtail plant response rating (giant foxtail; [1]): 0
Giant foxtail plant response rating (giant foxtail; [5]): 0
Giant foxtail plant response rating (giant foxtail; [6]): 3
Plant response rating, Giant foxtail (giant foxtail; [7]): 4
Plant response rating, Giant foxtail (giant foxtail; [8]): 4
Giant foxtail plant response rating (giant foxtail; [9]): 9
Giant foxtail plant response rating (giant foxtail; [10]): 0
Giant foxtail plant response rating (giant foxtail; [11]): 0
Wheat plant response rating (wheat; [1]): 0
Wheat plant response rating (wheat; [5]): 0
Wheat plant response rating (wheat; [6]): 0
Plant response rating, Wheat (wheat; [7]): 0
Plant response rating, Wheat (wheat; [8]): 0
Wheat plant response rating (wheat; [9]): 0
Wheat plant response rating (wheat; [10]): 0
Wheat plant response rating (wheat; [11]): 0
Nutsedge plant response rating (purple nutsedge; [1]): 0
Nutsedge plant response rating (purple nutsedge; [5]): 0
Nutsedge plant response rating (purple nutsedge; [6]): 0
Plant response rating, Nutsedge (purple nutsedge; [7]): 0
Plant response rating, Nutsedge (purple nutsedge; [8]): 2
Nutsedge plant response rating (purple nutsedge; [9]): 3
Nutsedge plant response rating (purple nutsedge; [10]): 0
Nutsedge plant response rating (purple nutsedge; [11]): 0
Rice plant response rating (rice; [1]): 0
Rice plant response rating (rice; [2]): 0
Rice plant response rating (rice; [3]): 3
Rice plant response rating (rice; [4]): 0
Morningglory plant response rating (morningglory; [1]): 0
Morningglory plant response rating (morningglory; [5]): 1
Morningglory plant response rating (morningglory; [6]): 0
Plant response rating, Morningglory (morningglory; [7]): 0
Plant response rating, Morningglory (morningglory; [8]): 0
Morningglory plant response rating (morningglory; [9]): 0
Morningglory plant response rating (morningglory; [10]): 1
Morningglory plant response rating (morningglory; [11]): 2
B. signalgrass plant response rating (surinam grass; [1]): 0
B. signalgrass plant response rating (surinam grass; [5]): 0
B. signalgrass plant response rating (surinam grass; [6]): 0
Plant response rating, B. signalgrass (surinam grass; [7]): 0
Plant response rating, B. signalgrass (surinam grass; [8]): 0
B. signalgrass plant response rating (surinam grass; [9]): 0
B. signalgrass plant response rating (surinam grass; [10]): 0
B. signalgrass plant response rating (surinam grass; Rate 500 g/ha, Postemergence, scale of 0 to 10 where 0 is no effect and 10 is complete control): 0
Wild oats plant response rating (wild oat; [1]): 0
Wild oats plant response rating (wild oat; [5]): 0
Wild oats plant response rating (wild oat; [6]): 0
Plant response rating, Wild oats (wild oat; [7]): 0
Plant response rating, Wild oats (wild oat; [8]): 0
Wild oats plant response rating (wild oat; [9]): 0
Wild oats plant response rating (wild oat; [10]): 0
Wild oats plant response rating (wild oat; [11]): 0
Corn plant response rating (corn; [1]): 0
Corn plant response rating (corn; [5]): 0
Corn plant response rating (corn; [6]): 0
Plant response rating, Corn (corn; [7]): 0
Plant response rating, Corn (corn; [8]): 0
Corn plant response rating (corn; [9]): 0
Corn plant response rating (corn; [10]): 0
Corn plant response rating (corn; [11]): 0
Rape plant response rating (rape; [1]): 0
Rape plant response rating (rape; [5]): 0
Rape plant response rating (rape; [6]): 0
Plant response rating, Rape (rape; [7]): 0
Plant response rating, Rape (rape; [8]): 0
Rape plant response rating (rape; [9]): 3
Rape plant response rating (rape; [10]): 0
Rape plant response rating (rape; [11]): 0
Cocklebur plant response rating (cocklebur; [1]): 0
Cocklebur plant response rating (cocklebur; [5]): 0
Cocklebur plant response rating (cocklebur; [6]): 0
Plant response rating, Cocklebur (cocklebur; [7]): 0
Plant response rating, Cocklebur (cocklebur; [8]): 0
Cocklebur plant response rating (cocklebur; [9]): 0
Cocklebur plant response rating (cocklebur; [10]): 0
Cocklebur plant response rating (cocklebur; [11]): 0
Sugarbeets plant response rating (sugar beet; [1]): 0
Sugarbeets plant response rating (sugar beet; [5]): 0
Sugarbeets plant response rating (sugar beet; [6]): 0
Plant response rating, Sugarbeets (sugar beet; [7]): 0
Plant response rating, Sugarbeets (sugar beet; [8]): 0
Sugarbeets plant response rating (sugar beet; [9]): 0
Sugarbeets plant response rating (sugar beet; [10]): 0
Sugarbeets plant response rating (sugar beet; [11]): 0
